Experimental data: patent publication US10913711B2, “Potent and selective inhibitors of monoamine transporters; method of making; and use thereof” (priority 2013, dated 2021)

How the values were obtained:
[1] = Phase II glucuronidation stability in mouse liver microsomes (UDPGA); format: in vitro ADME
Description: Phase I and phase II metabolic stability assay for was conducted in mouse liver microsomes. For phase I metabolism, the reaction was carried out with 100 mM potassium phosphate buffer, pH 7.4, in the presence of NADPH regenerating system (1.3 mM NADPH, 3.3 mM glucose 6-phosphate, 3.3 mM MgCl2, 0.4 U/mL glucose-6-phosphate dehydrogenase, 50 μM sodium citrate). Reactions in duplicate were initiated by addition of the liver microsomes to the incubation mixture (compound final concentration was 10 μM; 0.5 mg/mL microsomes). For phase II glucuronidation reaction compound was added to TRIS-HCl buffer (50 mM, pH 7.5) with microsomes (0.5 mg/mL), along with MgCl2 (8 mM), and alamethicin (25 μg/mL) and pre-incubated at 37° C. The reaction was initiated (in duplicate) with UDPGA at a final concentration of 2 mM. Negative controls in the absence NADPH and UDPGA were carried for both phase I and phase II metabolism respectively, to determine the specific cofactor free degradation. […] Compound disappearance was monitored over time using a liquid chromatography and tandem mass spectrometry (LC/MS/MS) method.
Compounds were separated on an Agilent 1290 UPLC system with a c18 column using a gradient run of 55:45-5:95 water:acetonitrile over 3.2 minutes and detected on an Agilent 6520 QTOF mass spectrometer.

[2] = test system: ON(O)CCc1ccccc1; assay: cells, lysate or membranes; details: other: [3H]DA uptake, COS7 cells; pH 7.4; 37.0 °C
[3] = substrate: ON(O)CCc1ccccc1; assay: [3H]DA uptake inhibition in intact COS7 cells, hDAT WT; format: cell-based, human; details: other: [3H]DA uptake, pH 7.4, 37.0 °C

With `Cc1cc(=O)oc2cc(O)ccc12` [4 Methyl Umbelliferone, 4-methylumbelliferone] the “Phase II, parent compound remaining” value ([1]; 0 min) was 100% and the “Phase II, parent compound remaining” value ([1]; 60 min) was 3.10%.

For “human DAT A480T mutant (Homo sapiens; A480T)”, the Km [2] was 1,930 nM.

B1: human DAT wild type (Homo sapiens) (protein)
chain: MSKSKCSVGLMSSVVAPAKEPNAVGPKEVELILVKEQNGVQLTSSTLTNPRQSPVEAQDRETWGKKIDFLLSVIGFAVDLANVWRFPYLCYKNGGGAFLVPYLLFMVIAGMPLFYMELALGQFNREGAAGVWKICPILKGVGFTVILISLYVGFFYNVIIAWALHYLFSSFTTELPWIHCNNSWNSPNCSDAHPGDSSGDSSGLNDTFGTTPAAEYFERGVLHLHQSHGIDDLGPPRWQLTACLVLVIVLLYFSLWKGVKTSGKVVWITATMPYVVLTALLLRGVTLPGAIDGIRAYLSVDFYRLCEASVWIDAATQVCFSLGVGFGVLIAFSSYNKFTNNCYRDAIVTTSINSLTSFSSGFVVFSFLGYMAQKHSVPIGDVAKDGPGLIFIIYPEAIATLPLSSAWAVVFFIMLLTLGIDSAMGGMESVITGLIDEFQLLHRHRELFTLFIVLATFLLSLFCVTNGGIYVFTLLDHFAAGTSILFGVLIEAIGVAWFYGVGQFSDDIQQMTGQRPSLYWRLCWKLVSPCFLLFVVVVSIVTFRPPHYGAYIFPDWANALGWVIATSSMAMVPIYAAYKFCSLPGSFREKLAYAIAPEKDRELVDRGEVRQFTLRHWLKV
In the case of B1, the Km [3] is reported as 1,160 nM.
